Entries after “also recorded” stand apart in the source; their conditions may differ.
Legend:
158N cells [1] = assay: MTT cytotoxicity assay on 158N oligodendrocytes; format: cell-based, Murine; conditions: Mus musculus, 0, 1, 10, 20, 50, 100 µM, mean of two parallel experiments, read-out: IC50 (viability of 158N cells)
Description: (§1) The cytotoxicity was estimated by the MTT assay against different oligodendrocytes, such as 158 JP and 158 N cells, and 7-ketocholesterol was the control. Different in vitro assays were used to estimate the redox activity, including the dihydroethidium (DHE), 2′,7′-dichlorodihydrofluorescein diacetate (H2-DCFDA), 2,2′-azinobis-3-ethylbenzothioazoline-6-sulphonate (ABTS), 2,2-diphenyl-2-picrylhydrazyl (DPPH), and the bleomycin-induced DNA damage assays.
(§2) Murine oligodendrocytes (158N and 158JP) were seeded at 240,000 cells per 24-well plates and were grown using the Dulbecco’s Modified Eagle Medium supplemented with penicillin antibiotics (1% v/v, streptomycin) and fetal bovine serum (5% v/v) and kept at 37 °C an atmosphere containing 5% CO2 [3]. […] Organ ic sel enides 4 and 5 were prepared in DMSO and then diluted with DMEM up to 1 mM.
The MTT assay was carried out on 158N and 158JP cells after one day of incubation with 7kc (50µM)/different concentrations (0, 1, 10, 20, 50, and 100 µM) of the o rganic selenides 4 an d 5 were. In live cells, the MTT is reduced to formazan by the succinate dehydrogenase mitochondrial enzy me. The microplate reader Tecan Sunrise (Tecan, Lyon, France) was used for the reading of the plates at 570 nm. The IC50 values and the maximu m concentrations without toxicity were estimated for organic selenides 4 and 5 from the respective dose-response curves.
Table S1. Effect of the organoselenium compounds on the viability of 158N and 158JP […]
The cytotoxicity was measured after two days of treatment with different concentrations (0, 1, 10, 20, 50, and 100 µM) of the organic selenides using the MTT assay. The IC50 was estimated as the mean of two parallel experiments;

158JP cells = assay: MTT cytotoxicity assay on 158JP oligodendrocytes; format: cell-based, Murine; conditions: mean of two parallel experiments
Description: as §1, §2
The MTT assay was carried out on 158N and 158JP cells after one day of incubation with 7kc (50µM)/different concentrations (0, 1, 10, 20, 50, and 100 µM) of the o rganic selenides 4 an d 5 were. […] The microplate reader Tecan Sunrise (Tecan, Lyon, France) was used for the reading of the plates at 570 nm. […]
The cytotoxicity was measured after two days of treatment with different concentrations (0, 1, 10, 20, 50, and 100 µM) of the organic selenides using the MTT assay. […]

158N cells [2] = assay: H2-DCFDA assay of ROS production (flow cytometry); format: cell-based, Murine; conditions: for Effect on ROS level / H2-DCF intensity (in words): 158 N cells, 0–50 μM, vitamin E as control; for H2-DCFDA assay (% of control), ROS production: 158N cells, mean ± SD
Description: as §1
(§3) The levels of ROS were monitored with the H2-DCFDA and DHE assays using flow cytometry. Briefly, 158 N cells were mixed with serial concentrations (0–50 μM) of compound 4 and compound 5 using Vitamin E as the control.
ROS overproduction and O2•− were detected with DCF and DHE, respectively. Cultured cells were treated with trypsin re-suspended in PBS (10^6 cells/mL) and kept in the dark for a half-hour at 37°C with H2-DCFDA or DHE at 10 μM and 2 μM and cells were analyzed by flow cytometry.
The green fluorescence of 2’,7’- dichlorofluorescein resulting from the oxidation of H2-DCFDA was analyzed by flow cytometry and collected through a 520/10-nm bandpass filter. DHE, a non-fluorescent compound, rapidly oxidized in ethidium under the action of O2•− to give 2-hydroxyethidium that intercalates with DNA giving red fluorescence of ethidium collected through a 590/10-nm bandpass filter using an excitation of 488 nm and an emission wavelength of 575 nm.
Flomax (Partec) or FlowJo (Tree Star Inc.) software was used for th e data analysis.
Table S2. Evaluation of the effects of compounds on ROS production by H2-DCFDA assay.
H2-DCFDA assay (% of control)
158N Cells were cultured in the presence of different compounds (C1=10; C2= 20; C3=50 µM); Flow cytometry technique was used to evaluate ROS levels via staining cells with H2-DCF; data are shown as mean ± SD and expressed as % control; the significance of the difference between the DMSO and compounds. Treated cells are indicated by (Mann–Whitney test; *: P < 0.05); vitamin E (50 µM) was used as a positive control.

158N cells [3] = assay: DHE assay of superoxide anion (O2•−) production (flow cytometry); format: cell-based, Murine; conditions: for DHE assay (% of positive cells), superoxide anion production: 158N cells, mean ± SD
Description: as §1, §3
ROS overproduction and O2•− were detected with DCF and DHE, respectively. Cultured cells were treated with trypsin re-suspended in PBS (10^6 cells/mL) and kept in the dark for a half-hour at 37°C with H2-DCFDA or DHE at 10 μM and 2 μM and cells were analyzed by flow cytometry. […]
Flomax (Partec) or FlowJo (Tree Star Inc.) software was used for th e data analysis. […]
Table S3. Evaluation of the effects of compounds on superoxide anions (O2•− ) production […]
DHE assay (% of positive cells)
158N Cells were grown in the presence of different compounds (C1=10; C2= 20; C3=50 µM); Flow cytometry techniques was used to estimate the O2•− production via staining with DHE; Data are shown as mean ± SD and expressed as % control; Significance of the difference between the DMSO and compounds. […]

calf thymus DNA = assay: Bleomycin-dependent DNA damage assay; format: biochemical; set-up: Bleomycin-dependent DNA damage assay (Abs.): scale not given here; conditions: 2 mM tested compound; for Bleomycin-dependent DNA damage assay (Abs.): absorbance at 532 nm, means of 3 replicates; for Bleomycin-dependent DNA damage, % of Vitamin C: relative to L-ascorbic acid (2 mM)
Description: as §1
(§4) Bleomycin-dependent DNA damage
The assay was performed according to the reported method with minor modifications. The reaction mixture contained 0.5 mg/ml calf thymus DNA, 0.05 mg/ml b leomy cin sulfate, 5 mM magnesium chloride, 50 mM ferric chloride, 2 mM tested compound. L-ascorbic acid (2 mM) was used as a positive control. The mixture was incubated at 37 °C for 1 hour. The activity of test compounds was evaluated as malondialdehyde equivalents. Thiobarbituric acid reactive substances, which arose from deoxyribose degradation of DNA were assessed. The reaction was terminated by the addition of 0.05 ml 0.1 M EDTA. The color was developed by adding 0.5 ml of 1% w/v thiobarbituric acid and 0.5 ml of 25% v/v HCl (25% v/v). The tube was capped with a screw cap and heated at 80 °C for 30 min. After cooling in ice water, the mixture was then shaken and centrifuged and the extent of DNA damage was measured by an increase in absorbance at […]
Table S4. The Bleomycin-dependent DNA damage assay.
Compd. No. DNA damage assay % of Vitamin C […]
a ascorbic acid is used as a standard for antioxidant activity; values are means of 3 replicates; b not detected.

[4] = GPx-like activity assay (NADPH-coupled, H2O2 reduction); format: biochemical; conditions: ebselen (41 µM) positive control
Experimental: page 19: GPx -like activity The GPx-kit was purchased from Biodiagnostic (Egypt) and used according to the reported method. The sample was prepared by adding assay buffer and NADPH reagent (0 .1 ml; 24 μmol Glutathione, 4.8 μmol NADPH and12 units Glutathione reductase), and organic selenide 4 (0.01 ml, 41 μM). H2O2 (0.8 mM) was then added, and the absorbance was kinetically recorded every 1 min at wavelength 340 nm over three successive minutes. […]/min was calculated. Ebselen (41 μM) was used as the positive control. For colored organoselenium compounds, their absorbance was subtracted at the used wavelength. 0.008 0.007 0.006 0.005 0.004 0.003 0.002 0.001 0 Eb selen 4 5 Figure S11 . GPx-like activity assay (μM. min-1). The reduction of H2O2 by GPx-like activity was tracked by […] of glutathione disulfide (GSSG) and NADPH to glutathion e (GSH, reduced form) and NADP+, respectively. The latter was detected by a decrease in the absorbance at 340 nm. References 1. […], Jacob C. Sulfur, selenium and tellurium pseudopeptides: synthesis and biological evaluation. Bioo rg. Med. Chem. 22(14), 3610-3619 (2014). 2. […]. Synthesis and anti-tumor evaluation of novel organoselenocyanates and symmetrical diselenides dyestuffs . Der Pharma Chemica. 6, 186-193 (2014).

[5] = Bleomycin-induced DNA damage, DPPH and ABTS in vitro radical scavenging assays; conditions: DPPH, ABTS assays
Description: as §1, §4
The assay was performed according to the reported method with minor modifications. […] The activity of test compounds was evaluated as malondialdehyde equivalents. Thiobarbituric acid reactive substances, which arose from deoxyribose degradation of DNA were assessed. […] After cooling in ice water, the mixture was then shaken and centrifuged and the extent of DNA damage was measured by an increase in absorbance at […]
a ascorbic acid is used as a standard for antioxidant activity; values are means of 3 replicates; b not detected. […]
The hydrogen atom or electron donation ability of the corresponding compounds was measured by estimating the bleaching of the purple color of a methanolic solution of DPPH. […] After 30 min of incubation in the dark, the absorbance was read against a blank at 517 nm. […] The radical scavenging activity was calculated using the following equ ation : I% = (Ablank- […]

HepG2 = test system: HepG2; set-up: method as in PMID 29864687, doi:10.1016/j.arabjc.2021.103051; conditions: read-out: IC50 (cytotoxic activity against HepG2); cited from earlier work
MCF-7 = test system: MCF-7; set-up: method as in PMID 29864687, doi:10.1016/j.arabjc.2021.103051; conditions: read-out: IC50 (cytotoxic activity against MCF-7); cited from earlier work

| Molecule | IC50 (158N cells [1]) | IC50 (viability of 158JP cells) (158JP cells; 0, 1, 10, 20, 50, 100 µM) | Effect on ROS level / H2-DCF intensity (in words) (158N cells [2]) | H2-DCFDA assay (% of control), ROS production (158N cells [2]; C1 (10 µM)) | H2-DCFDA assay (% of control), ROS production (158N cells [2]; C2 (20 µM)) | H2-DCFDA assay (% of control), ROS production (158N cells [2]; C3 (50 µM), vitamin E 50 µM) | Effect on O2− production in DHE assay (in words) (158N cells [3]; 158 N cells, 0–50 μM) | DHE assay (% of positive cells), superoxide anion production (158N cells [3]; C1 (10 µM)) | DHE assay (% of positive cells), superoxide anion production (158N cells [3]; C2 (20 µM)) | DHE assay (% of positive cells), superoxide anion production (158N cells [3]; C3 (50 µM), vitamin E 50 µM) | Bleomycin-dependent DNA damage assay (Abs.) (calf thymus DNA) | Bleomycin-dependent DNA damage, % of Vitamin C (calf thymus DNA) | GPx-like activity (in words) [4] | Pro-oxidant properties compared to vitamin C [5] | IC50 (HepG2) | IC50 (MCF-7) | IC50 (158JP cells; Mus musculus, 0, 1, 10, 20, 50, 100 µM, read-out: IC50 (viability of 158JP cells)) |
| --- | --- | --- | --- | --- | --- | --- | --- | --- | --- | --- | --- | --- | --- | --- | --- | --- | --- |
| CC1=C([Se]c2ccc(N)cc2)C(=O)c2ccccc2C1=O [Compound 4] | 27 µM | no growth inhibition was observed | pronounced pro-oxidant activity | 700 ± 143 % of control | 854 ± 135 % of control | 935 ± 307 % of control | promote the production of O2^− | 264 ±25 % of positive cells | 406±29 % of positive cells | 417±31 % of positive cells | 483 | 48.8% | moderate GPx-like activity | up to 60% | 0.9 µM | 14.7 µM |  |
| CC(=O)Nc1ccc([Se]C2=C(C)C(=O)c3ccccc3C2=O)cc1 [Compound 5, N-(4-((3-Methyl-1,4-dioxo-1,4-dihydronaphthalen-2-yl)selanyl)phenyl)acetamide] | 11 µM |  | decrease the H2-DCF intensity; also recorded: decreased the ROS level | 7 ± 2 % of control | 5 ± 1 % of control | 6 ± 1 % of control |  | 109±12 % of positive cells | 121 ±1 % of positive cells | 120 ±4 % of positive cells | 581 | 58.8% | moderate GPx-like activity | up to 60% |  |  |  |
| CC(C)CCC[C@@H](C)[C@H]1CC[C@H]2[C@@H]3C(=O)C=C4C[C@@H](O)CC[C@]4(C)[C@H]3CC[C@]12C [Compound 7kc, 7-ketocholesterol, reference compound] | 37 µM |  |  |  |  |  |  |  |  |  |  |  |  |  |  |  | 74 µM |
| O=C1O[C@H]([C@@H](O)CO)C(O)=C1O [Vit.C, L-ascorbic acid, reference compound] |  |  |  |  |  |  |  |  |  |  | 989 | 100% |  |  |  |  |  |
| VITAMINE E [reference compound] |  |  |  |  |  | 94 ± 5 % of control |  |  |  | 74± 1 % of positive cells |  |  |  |  |  |  |  |
